This is an account of results in patent publication US9840532B2, “5′-substituted nucleoside compounds” (Eli Lilly and Company, priority 2015, dated 2017).

The test system of assay [1] is Molt 4 cells. Nature of the assay: Xenograft tumor model, acute lymphoblastic leukemia (Molt 4). Conditions: 60 mg/kg BID for 30 days, oral gavage. In kind it is in vivo, mouse. As for the experimental part:
The purpose of this assay is to measure in a mouse model of cancer the reduction in tumor volume in response to test compound administration.
Grow A375 (melanoma) cells in DMEM/High glucose (HYCLONE™ cat. # SH30022) with 10% HI FBS (GIBCO® cat. #10082-147). Grow Will-2 (DLBCL) cells in RPMI 1640 with L-glutamine and 20% heat inactivated FBS. Grow Namalwa (Burkitt's lymphoma) cells (ATCC) in RPMI 1640 media supplemented with L-glutamine, 25 mM HEPES (GIBCO® 22400-089), 1 mM sodium pyruvate and 7.5% FBS. Grow Molt 4 cells in RPMI 1640 with L-glutamine, 25 mM HEPES [GIBCO 22400-089], 1 mM sodium pyruvate, and 10% FBS. Harvest cells and inject subcutaneously onto the rear flank of nude mice (A375: 5×10^6 cells/animal, mixed 1:1 with MATRIGEL®; Will-2; 1×10^7 cells/animal; Namalwa: 2×10^6 cells/animal; Molt 4: : 5×10^6 cells/animal, mixed 1:1 with MATRIGEL®). When tumors are established (approximately 200 mm^3, 7-21 days after implant), randomize animals, and group them into control and test groups. Formulate the test compound in 1% HEC/0.25% TWEEN®-80/0.05% Antifoam. Administer test compound and vehicles by oral gavage. Determine tumor response by tumor volume measurement (caliper) performed twice a week during the course of treatment and report as the percent inhibition of tumor volume versus the vehicle control group.

In assay [2] the target is T1, PRMT5/MEP50 complex (Homo sapiens, UniProt O14744).
T1 construct: FLAG; made in house; host or cells: baculovirus/Sf9 insect cells
Nature of the assay: PRMT5/MEP50 SPA Assay. Particulars: Mean ± SEM. It counts as biochemical. From the text:
The purpose of this assay is to measure the ability of a test compound to inhibit the enzyme activity of PRMT5 in vitro by inhibiting the catalytic activity of PRMT5/MEP50 complex, indicated by the transfer of radiolabeled methyl-^3H to a substrate peptide derived from the N-terminal sequence of the human histone H4.
Express the PRMT5/MEP50 enzyme complex using a baculovirus/Sf9 system and purify using anti-FLAG affinity chromatography, (essentially as described in preparations by Stephen Antonysamy, Zahid Bonday, Robert M. Campbell, Brandon Doyle, Zhanna Druzina, Tarun Gheyi, Bomie Han, Louis N. Jungheim, Yuewei Qian, Charles Rauch, Marijane Russell, J. Michael Sauder, Stephen R. Wasserman, Kenneth Weichert, Francis S. Willard, Aiping Zhang, and Spencer Emtage; Crystal structure of the human PRMT5:MEP50 complex, Proceedings of the National Academy of Sciences, 2012, Volume 109, pages 17960-17965.) Dilute purified enzyme to a working stock of 6.67 nM in assay buffer (50 mM TRIZMA® preset pH ˜8.5, 1 mM DTT, 0.005% TWEEN® 80 0.01% HSA).
Add enzyme (15 μL/well) to a 384-well assay plate (CORNING® cat. #3706). Add test compounds from a 10 mM DMSO stock solution to the plate as serial dilutions in assay buffer to achieve a final test concentrations ranging from 50.0 μM to 25 nM. Create a reaction mix containing 1 μM Histone H4 biotinylated peptide substrate, H-[…]-biotin (SEQ ID NO: 1), prepared by FastMoc chemistry with an ABI 431 peptide, and 4 μM ^3H-SAM; 15 Ci/mmol, 0.366 mCi/mL, 37 μM, PERKIN-ELMER® cat. # NET155000MC) in assay buffer. To each plate well, add 5 μL of the peptide/^3H-SAM reaction mix to yield final assay conditions of 5 nM enzyme, 1 ^3H-SAM, 250 nM peptide and 50 μM maximum test compound concentration with 0.5% DMSO, at a final volume of 20 μL. Incubate the assay for 2 hr at room temperature. Stop the reaction with the addition of guanidine HCl (5 M, 20 μL, Sigma cat. # G3272).
Suspend strepavidin YSI SPA scintillation beads (PERKIN-ELMER®, #RPNQ0012) at 1 mg/mL in pH ˜8.5 Tris buffer containing 5 M guanidine HCl. To each well, add 20 μL of this bead suspension, agitate the resulting mixtures, and incubate for 1 hr at room temperature prior to measuring their radioactivity, using a microplate liquid scintillation counter as an indication of the formation of methylated peptide product.
Generate raw data from the radioactivity measurement as counts per min (CPM). Employ an uninhibited control (DMSO) and maximum inhibited control (250 μM dehydrosinefungin, (isolated essentially as described in Berry, D. R. & Abbott, B. J. Incorporation of carbon-14-labeled compounds into sinefungin (A9145), a nucleoside antifungal antibiotic. J. Antibiot. 1978 (31) 185-191 and references cited therein)). […]

For assay [3], the system named is PRMT5-dependent alternative splicing of MDM4 in A375 melanoma cells. Nature of the assay: MDM4 Exon5/6 qPCR Assay in A375 Tumor Cells. It counts as cell-based. Conditions: Homo sapiens, A-375, 72 hr, Mean ± SEM. As for the experimental part:
Culture A375 tumor cells (ATCC), a melanoma cancer cell line, to 70%-90% confluence in T150 flasks with the growth medium (DMEM; HYCLONE™ #SH30022 with 10% FBS; GIBCO® 10082-147 or equivalent). Treat the cells with standard trypsin/EDTA treatment for 3 min and aspirate and wash with PBS to release the adherent cells from the culture flask. Seed the cells into a 96 well plate (Costar 3596) at 5000/well in growth medium (90 μL). Incubate the plate overnight at 37° C. and 5% CO2 and treat the cells with test compound at serial dilutions ([…], final DMSO addition of 0.2% yield) for 72 hr. Measure activity relative to maximum (2.0 μM of Example 2 and minimum (0.2% DMSO) controls.
On Day 5 after incubation, remove the medium from the culture plates and wash the cells twice with cold PBS (150 μL/well). Prepare Lysis Working Reagent from the TAQMAN® Gene Expression Cells-to-CT Kit (INVITROGEN™ cat. # AM1729) by dilution of DNAse 1 into Lysis Solution at 1/100. Add Lysis Working Reagent (50 μL/well) to the cell plates, mix well, and incubate at room temperature for 5 min Add kit stop solution (5 μL) to each well, mix the wells, and incubate for 2 min at room temperature. Prepare Reverse Transcriptase Master Mix in the following volume ratios; RT buffer: Nuclease-free water: RT Enzyme at 62.5:31.25:6.25. Add RT mix (48 μL/well) to each well of a 96-well NUNC™ plate (THERMO SCIENTIFIC™ #260860). Add RT mix (20 μL) and each cell lysate sample (5 μL) into a 384 PCR plate (Clear Optical Reaction Plate, cat. #4309849, APPLIED BIOSYSTEMS®) quadrant 1 and add a second addition of RT Mix and cell lysate to quadrant 3. For the RT reaction, seal the plates and then place them in a thermal cycler set at 37° C. for 60 min; 95° C. for 5 min; stop at 4° C. For qPCR, prepare MDM4 exon 5 primers (Life Technologies Hs00967240-ml) and exon 6 primers (Life Technologies Hs00967242-ml) separately in the following volume ratios of RT mix: H2O: exon probe at 10:6:1. Add Exon 5 (17 μL) to odd columns of a 384 PCR plate and add exon 6 (17 μL) to the even columns. Add cDNA (3 μL, from the RT plate) by quadrant stamping to each well of the qPCR plate containing the 17 μL exon primer solution. In this manner, perform qPCR for both exons on cDNAs from a single RT reaction on an individual cell lysate. Seal the plates, spin, and place on a real-time PCR instrument (Life Technologies ViiA7 Real-Time PCR). […]
Retrieve CT data from the real-time PCR reader and perform the following calculations, where “CPD” is the value from compound-treated samples, and “DMSO” is the minimum control sample, using an Excel template: (Exon 6 CT CPD−Exon 6 CT DMSO)−(Exon 5 CT CPD−Exon 5 CT DMSO)=ΔCT 2^(−ΔCT)=Fold Change […]

The test system of assay [4] is GDM-1 cells. Nature of the assay: Combination with BCL2 inhibitor ABT-199 in AML cell lines, 4-day cell proliferation assay. Particulars: GDM-1, treatment duration 4 Days; single agent or combination; read-out: Absolute IC50 (cell proliferation). It counts as cell-based. How it is done:
(§1) On day 1, plate GDM-1 [ATCC®, maintained throughout in GDM-1 assay medium: RPMI-1640 medium/20% heat-inactivated FBS (GIBCO®)] and EOL-1 cells [ATCC®, maintained throughout in EOL-1 assay medium: RPMI-1640 medium/10% heat-inactivated FBS (GIBCO®)] at 4000 and 10000 cells/well (100 μL/well) respectively, in a 96-well assay plate (BD FALCON® 35-3219). Incubate the plates in a 37° C. incubator (5% CO2) for 18-24 hr. On day 2, prepare 2.0% DMSO with assay medium (as indicated above or RPMI-1640/20% heat-inactivated FBS and RPMI-1640/10% FBS for GDM-1 and EOL-1, respectively) and add 100 μL to columns 3-12 in a preparation plate. Prepare test compounds ABT-199 at 10 μM in 2% DMSO and PRMT5 inhibitor Example 1 at 25 μM in 2% DMSO and dispense into wells A2 and B2, respectively, followed by serial dilution (1:3, 10 points) to wells A11 and B11, respectively. For combinational treatment, serially dilute test compound examples at 1:2 in assay medium (as indicated above or RPMI-1640/20% heat-inactivated FBS and RPMI-1640/10% FBS for GDM-1 and EOL-1, respectively) in wells C2-C11 (0.1 μM) to H2-H11, then serially dilute test compound ABT-199 1:3 from C2-H2 (1.0 μM) to C11-H11. […] Incubate plates for 10-15 min at room temperature before reading. Measure luminescence using the PERKIN-ELMER® ENVISION® Multi-Label Reader. […]

For assay [5], the system named is EOL-1 cells. The assay can be described thus: Combination with BCL2 inhibitor ABT-199 in AML cell lines, 7-day cell proliferation assay. It counts as cell-based. Particulars: EOL-1, treatment duration 7 Days; single agent or combination; read-out: Absolute IC50 (cell proliferation). How it is done:
as §1

T1 sequence (O14744 whole entry): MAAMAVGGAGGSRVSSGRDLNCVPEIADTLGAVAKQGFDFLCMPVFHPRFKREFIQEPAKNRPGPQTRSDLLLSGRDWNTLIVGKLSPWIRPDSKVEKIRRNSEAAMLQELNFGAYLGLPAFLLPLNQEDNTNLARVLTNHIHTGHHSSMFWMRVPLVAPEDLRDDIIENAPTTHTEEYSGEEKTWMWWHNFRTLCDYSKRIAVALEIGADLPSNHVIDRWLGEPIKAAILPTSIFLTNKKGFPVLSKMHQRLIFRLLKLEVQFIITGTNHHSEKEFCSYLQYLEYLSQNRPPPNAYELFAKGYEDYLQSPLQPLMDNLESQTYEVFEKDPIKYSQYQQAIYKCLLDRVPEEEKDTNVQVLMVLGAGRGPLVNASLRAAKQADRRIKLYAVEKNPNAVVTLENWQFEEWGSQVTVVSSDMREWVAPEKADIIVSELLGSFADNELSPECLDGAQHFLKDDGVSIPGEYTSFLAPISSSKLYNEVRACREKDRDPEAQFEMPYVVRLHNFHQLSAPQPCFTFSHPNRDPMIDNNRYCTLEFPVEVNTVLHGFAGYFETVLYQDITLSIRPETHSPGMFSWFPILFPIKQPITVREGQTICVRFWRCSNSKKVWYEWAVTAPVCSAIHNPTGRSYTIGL
T1 sequence (Q9BQA1 whole entry partner): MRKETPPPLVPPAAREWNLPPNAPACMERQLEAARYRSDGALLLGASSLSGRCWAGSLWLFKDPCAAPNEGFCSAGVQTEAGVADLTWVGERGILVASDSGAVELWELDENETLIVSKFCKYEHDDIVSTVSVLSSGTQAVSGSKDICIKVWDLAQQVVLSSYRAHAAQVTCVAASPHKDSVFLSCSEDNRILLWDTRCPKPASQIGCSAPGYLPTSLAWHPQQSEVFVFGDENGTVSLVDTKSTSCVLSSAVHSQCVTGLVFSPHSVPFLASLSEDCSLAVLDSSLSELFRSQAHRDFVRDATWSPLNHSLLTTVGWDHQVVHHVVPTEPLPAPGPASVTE

Turning to `Nc1ncnc2c1ccn2[C@@H]1O[C@H]([C@H](O)c2ccc(Cl)c(OC3CC3)c2)[C@@H](O)[C@H]1O` [Example 4, (2R,3R,4S,5R)-2-(4-aminopyrrolo[2,3-d]pyrimidin-7-yl)-5-[(R)-[4-chloro-3-(cyclopropoxy)phenyl]-hydroxy-methyl]tetrahydrofuran-3,4-diol], in assay [1], the “percent inhibition of tumor volume versus vehicle” value is reported as −75%. Further, in assay [2], the IC50 is 5.2 nM. Besides, the midpoint of the response in assay [3], the EC50, lay at 1040 nM.

On to ABT-199 [reference compound], for which the IC50 in assay [4] was 7 nM; in assay [5] it was 30 nM.
